Tests used:
BRD4(1) = target: T1, BRD4(1) (Homo sapiens, UniProt O60885); experiment: Binding assay BRD4/acetylated peptide H4 (TR-FRET/HTRF protein-protein interaction assay); details: inhibition of interaction BRD4(1) / acetylated histone H4 peptide, TR-FRET
T1 construct: BRD4(1) (amino acids 44-168); made in house; host or cells: E. coli
Excerpt: Binding Assay BRD4/Acetylated Peptide H4 (“PRQ”)
To assess the BRD4 binding strength of the substances described in this application, their capacity for dose-dependent inhibition of the interaction between BRD4 and acetylated histone H4 was quantified.
For this purpose, a time-resolved fluorescence resonance energy transfer (TR-FRET) assay was used, which measures the binding between N-terminally His6-tagged BRD4(1) (amino acids 44-168) and a synthetic acetylated histone H4 (Ac-H4) peptide with the sequence GRGK(Ac)GGK(Ac)GLGK(Ac)GGAK(Ac)RHGSGSK-biotin. The recombinant BRD4 protein (produced in-house) was expressed in E. coli and was purified by (Ni-NTA) affinity chromatography and (Sephadex G-75) size-exclusion chromatography. The Ac-H4 peptide can be purchased for example from Biosyntan (Berlin, Germany).
In the assay, typically 11 different concentrations of each substance (0.1 nM, 0.33 nM, 1.1 nM, 3.8 nM, 13 nM, 44 nM, 0.15 μM, 0.51 μM, 1.7 μM, 5.9 μM and 20 μM) were measured as duplicates on the same microtitre plate. For this, 100-fold concentrated solutions in DMSO were prepared by serial dilutions (1:3.4) of a 2 mM stock solution in a clear, 384-well microtitre plate (Greiner Bio-One, Frickenhausen, Germany). From this, 50 nl was transferred to a black assay plate (Greiner Bio-One, Frickenhausen, Germany). The assay was started by supplying 2 μl of a 2.5-fold concentrated BRD4 solution (usually 10 to 50 nM final concentration in the 5 μl of the reaction volume) in aqueous assay buffer [50 mM HEPES pH 7.5, 50 mM sodium chloride (NaCl), 0.25 mM CHAPS and 0.05% serum albumin (BSA)] to the substances in the assay plate. This was followed by a 10-minute incubation step at 22° C. for the pre-equilibration of putative complexes between BRD4 and the substances.
The mixture was then incubated in the dark for one hour at 22° C. and then overnight at 4° C. The formation of BRD4/Ac-H4 complexes was determined by measuring the resonance energy transfer from the streptavidin-Eu-cryptate to the anti-6His-XL665 antibody that is present in the reaction. For this, the fluorescence emissions at 620 nm and 665 nm were measured after excitation at 330-350 nm in a TR-FRET measuring instrument, e.g. a Rubystar or Pherastar (both from BMG Lab Technologies, Offenburg, Germany) or a Viewlux (Perkin-Elmer). The ratio of the emissions at 665 nm and at […] was taken as an indicator of the amount of BRD4/Ac-H4 complexes formed.
The data obtained (ratio) were normalized, wherein 0% inhibition corresponded to the mean value from the measured values of a set of controls (usually 32 data points), in which all reagents were contained. 50 nl DMSO (100%) was used instead of test substances. Inhibition of 100% corresponded to the mean value from the measured values of a set of controls (usually 32 data points), in which all reagents except BRD4 were contained. The IC50 value was determined by regression analysis based on a 4-parameter equation (minimum, maximum, IC50, Hill; Y=Max+(Min−Max)/(1+(X/IC50)^Hill)) using Bayer's own analysis software.

LNCaP cells = experiment: Cellular proliferation assay (alamarBlue) LNCaP; assay type: cell-based; details: Homo sapiens, 168 hours, read-out: Prostate LNCaP IC50
Experimental: (§1) In accordance with the invention, the ability of the substances to inhibit the proliferation of various cell lines was determined. Cell viability was determined by means of the alamarBlue® reagent (Invitrogen). […] After incubation overnight at 37° C., the fluorescence values were determined (CI values). […] Then the fluorescence values were determined (CO values).
(§2) The substances were investigated in the cell lines in Table 1, which for example represent the stated indications: […]

MDA-MB-231 cells = experiment: Cellular proliferation assay (alamarBlue) MDA-MB-231; assay type: cell-based; details: Homo sapiens, 96 hours, read-out: Breast MDA-MB-231 IC50
Experimental: as §1, §2

MOLM-13 cells = experiment: MOLM-13 acute monocytic leukaemia tumour model; details: for T/C value: day 3 to day 14, measured on day 14; for activity on tumour growth: significance P<0.05
Experimental: NMRI nude mice were inoculated subcutaneously in the right flank on day 0 with 2×10^6 MOLM-13 cells in 0.1 ml Matrigel. […] Practical example 1 and practical example 2 were dissolved in 40% PEG400, 5% ethanol, 25% Solutol. The substances were administered orally, daily for […] (day 3 to day 14). […] Practical examples 1 and 2 were applied at a daily dose of 200 (highest dose used), 120 or 70 mg/kg.

[1] = B16F10 melanoma tumour model; details: C57BL/6, mouse, in vivo, po
Experimental: (§3) C57BL/6 mice were inoculated on day 0 with 0.5×10^6 cells in 0.1 ml medium, subcutaneously, in the right flank. […] The substances were administered orally for 10 days (day 2 to day 11). […] Practical example 2 was applied at a dose of 160 or 120 mg/kg.

B16F10 melanoma = B16F10 melanoma tumour model
Experimental: as §3

## Cc1sc2c(c1C)C(c1ccc(Cl)cc1)=N[C@@H](CC(=O)N1C3CCC1CC(=O)C3)c1nnc(C)n1-2 [Example 1, 8-{2-[(S)-4-(4-Chlorophenyl)-2,3,9-trimethyl-6H-thieno[3,2-f][1,2,4]triazolo[4,3-a][1,4]diazepin-6-yl]acetyl}-8-azabicyclo[3.2.1]octan-3-one]
BRD4(1)
  IC50: 28 nM
LNCaP cells
  IC50: 90 nM
MDA-MB-231 cells
  IC50: 110 nM
MOLM-13 cells; 70 mg/kg oral daily
  T/C value: 58%
  activity on tumour growth: inactive
MOLM-13 cells; 120 mg/kg oral daily
  T/C value: 46%
  activity on tumour growth: showed activity
MOLM-13 cells; 200 mg/kg oral daily
  T/C value: 39%
  activity on tumour growth: inhibited tumour growth

## Cc1sc2c(c1C)C(c1ccc(Cl)cc1)=N[C@@H](CC(=O)N1CC3(COC3)C1)c1nnc(C)n1-2 [Example 2, 2-[(S)-4-(4-Chlorophenyl)-2,3,9-trimethyl-6H-thieno[3,2-f][1,2,4]triazolo[4,3-a][1,4]diazepin-6-yl]-1-(2-oxa-6-azaspiro[3.3]hept-6-yl)ethan-1-one]
BRD4(1)
  IC50: 27 nM
LNCaP cells
  IC50: 80 nM
MDA-MB-231 cells
  IC50: 117 nM
MOLM-13 cells; 70 mg/kg oral daily
  T/C value: 46%
  activity on tumour growth: not statistically significant
MOLM-13 cells; 120 mg/kg oral daily
  T/C value: 46%
  activity on tumour growth: not statistically significant
MOLM-13 cells; 200 mg/kg oral daily
  T/C value: 23%
  activity on tumour growth: active
MOLM-13 cells; MOLM-13 tumour model, dose group not stated
  deaths in the treated group: one unexplained death
[1]
  MTD at 10 days: 120 mg/kg
B16F10 melanoma; 120 mg/kg (MTD), oral, day 2 to day 11
  T/C value: 27%
B16F10 melanoma; 120 mg/kg dose, oral, day 2 to day 11
  weight loss: 2%
B16F10 melanoma; 160 mg/kg dose, oral, day 2 to day 11
  weight loss: 5%
B16F10 melanoma; group treated with 70 mg/kg, day 10
  mice killed because of weight loss above 20%: one mouse

Source: patent US20140213575A1, “6H-Thieno[3,2-f][1,2,4]triazolo[4,3-a][1,4]diazepines” (BAYER INTELLECTUAL PROPERTY GMBH, priority 2011, published 2014)
